The IC50 is the concentration that gives 50% inhibition.

Molecules are shown by their SMILES.

The first assay has as its system IL-1β release in U937 cells after NLRP3 activation. In words: IL-1β release inhibition in U937 cells (MSD V-Plex). The following applies: Homo sapiens, U-937, read-out: IL-1β IC50, Table 3; PMA-differentiated U937 cells, 1 μg/mL LPS 3 h, compound 30 min, 10 mM nigericin 1 h.
Procedure: Differentiating media was prepared by adding 20 nM phorbol 12-myristate 13-acetate (PMA) (AdipoGen AG-CN2-0010-M005) to growth medium. A cell suspension was prepared with differentiating media at 500K cells/mL. […] Plates were placed in an incubator for 90 hours. […] Differentiating media was removed and priming media was added to each well. The plates were placed in the incubator for three (3) hours. 20 mM compound DMSO stock solutions were prepared and were further diluted to 0.4 mM; This solution was serially diluted 6 times in a 1:5 ratio. A solvent control was included.
After three (3) hours of priming, all the media was removed. Next, assay media with compounds was added in duplicate columns. The plate was placed in an incubator for 30 min. Media with a final concentration of 10 mM nigericin was then added for one (1) hour. The supernatant was collected and frozen immediately at −80° C. The plate was transferred to −20° C. the next day and for later determination of cytokine IL-1ß levels.
The release of IL-1ß into the cell media was determined with the MSD® Multi-Spot Assay System (V-Plex, IL-1ß kit, K151KPD). Following the manufacturer's protocol (Alternate Protocol 3, Dilute-In-Plate), the level of IL-1ß in the above collected supernatant plate was measured using electro-chemiluminescent signals. Using MSD DISCOVERY WORKBENCH® analysis software, the signals were converted to the concentration of IL-1ß in each well. The IC50 values of the compounds were calculated using fitted non-linear regression curve in Graph Pad Prism software. The detection range of IL-1ß using MSD kit was approximately 0.15 to 600 μg/mL (based on various lots of standards purchased from MSD).
Regarding `Cc1c(N[C@@H]2CCCN(CC(=O)N3CCC(O)CC3)C2)nnc(-c2ccc(C(F)(F)F)cc2O)c1C` [Example 30, (R)-2-(3-((6-(2-Hydroxy-4-(trifluoromethyl)phenyl)-4,5-dimethylpyridazin-3-yl)amino)piperidin-1-yl)-1-(4-hydroxypiperidin-1-yl)ethan-1-one], the IC50 was in the range of 5 to 50 nM.

Turning to `Cc1cc(N[C@@H]2CCCN(CC(=O)N3CCC(O)C3)C2)nnc1-c1ccc(C(F)(F)F)cc1O` (stereo partly drawn) [Compound 1, 2-((R)-3-((6-(2-Hydroxy-4-(trifluoromethyl)phenyl)-5-methylpyridazin-3-yl)amino)piperidin-1-yl)-1-(3-hydroxypyrrolidin-1-yl)ethan-1-one], the IC50 was 5 to 50 nM.

Take `CN1Cc2c(N[C@@H]3CCCN(CC(=O)N4CCC(O)CC4)C3)nnc(-c3ccc(C(F)(F)F)cc3O)c2C1` [Example 60, (R)-2-(3-((4-(2-Hydroxy-4-(trifluoromethyl)phenyl)-6-methyl-6,7-dihydro-5H-pyrrolo[3,4-d]pyridazin-1-yl)amino)piperidin-1-yl)-1-(4-hydroxypiperidin-1-yl)ethan-1-one]: the IC50 lay in the range of 50 to 500 nM.

Turning to `Cc1cc(N[C@@H]2CCCN(CC(=O)N[C@H]3C[C@@H](O)C3)C2)nnc1-c1ccc(C(F)(F)F)cc1O` [Compound 14, 2-((R)-3-((6-(2-Hydroxy-4-(trifluoromethyl)phenyl)-5-methylpyridazin-3-yl)amino)piperidin-1-yl)-N-((1s,3S)-3-hydroxycyclobutyl)acetamide], the IC50 lay in the range of 5 to 50 nM.

On to `Cc1c(N[C@@H]2CCCN(CC34CC(O)(C3)C4)C2)nnc(-c2ccc(C(F)(F)F)cc2O)c1C` [Example 68, (R)-3-((3-((6-(2-Hydroxy-4-(trifluoromethyl)phenyl)-4,5-dimethylpyridazin-3-yl)amino)piperidin-1-yl)methyl) bicyclo[1.1.1]pentan-1-ol], for which the IC50 fell in the range of 5 to 50 nM.

Turning to `Cc1c(N[C@@H]2CCCN(C[C@H]3C[C@@H](O)C3)C2)nnc(-c2ccc3sccc3c2O)c1C` [Example 73, 5-(6-(((R)-1-(((1s,3S)-3-Hydroxycyclobutyl)methyl)piperidin-3-yl)amino)-4,5-dimethylpyridazin-3-yl)benzo[b]thiophen-4-ol], the IC50 is less than 5 nM.

Consider `O=C(CN1CCC[C@@H](Nc2nnc(-c3ccc(C(F)(F)F)cc3O)c3c2COC3)C1)N1C[C@@H](O)[C@H](F)C1` [Example 29, 1-((3R,4R)-3-Fluoro-4-hydroxypyrrolidin-1-yl)-2-((R)-3-((4-(2-hydroxy-4-(trifluoromethyl)phenyl)-5,7-dihydrofuro[3,4-d]pyridazin-1-yl)amino)piperidin-1-yl)ethan-1-one], for which the IC50 was 5 to 50 nM.

As to `Cc1cc(N[C@@H]2CCCN(CC(=O)N3CCC4(CC3)CC(O)C4)C2)nnc1-c1ccc(C(F)(F)F)cc1O` [Compound 15, 2-[(3R)-3-({6-[2-Hydroxy-4-(trifluoromethyl)phenyl]-5-methylpyridazin-3-yl}amino)piperidin-1-yl]-1-{2-hydroxy-7-azaspiro[3.5]nonan-7-yl}ethanone], the IC50 was less than 5 nM.

For the molecule `Cc1c(N[C@@H]2CCCN(CCOC(=O)N3CCC(O)CC3)C2)nnc(-c2ccc(C(F)(F)F)cc2O)c1C` [Example 75, (R)-2-(3-((6-(2-Hydroxy-4-(trifluoromethyl)phenyl)-4,5-dimethylpyridazin-3-yl)amino)piperidin-1-yl)ethyl 4-hydroxypiperidine-1-carboxylate], the IC50 was less than 5 nM.

In the case of `Cc1cc(N[C@@H]2CCCN(C(=O)C34CC(O)(C3)C4)C2)nnc1-c1ccc(C(F)(F)F)cc1O` [Example 63, (R)-(3-((6-(2-Hydroxy-4-(trifluoromethyl)phenyl)-5-methylpyridazin-3-yl)amino)piperidin-1-yl) (3-hydroxybicyclo[1.1.1]pentan-1-yl)methanone], the IC50 was in the range of 5 to 50 nM.

Take `Cc1cc(C(F)(F)F)cc(O)c1-c1ccc(N[C@@H]2CCCN(CCN3CCC(O)CC3)C2)nn1` [Compound 6, (R)-1-(2-(3-((6-(2-Hydroxy-6-methyl-4-(trifluoromethyl)phenyl)pyridazin-3-yl)amino)piperidin-1-yl)ethyl)piperidin-4-ol]: the IC50 was in the range of 50 to 500 nM.

On to `O=C(CN1CCC[C@@H](Nc2nnc(-c3ccc(C(F)(F)F)cc3O)c3c2COC3)C1)N1C[C@H](O)[C@@H](F)C1` [Example 28, 1-((3S,4S)-3-Fluoro-4-hydroxypyrrolidin-1-yl)-2-((R)-3-((4-(2-hydroxy-4-(trifluoromethyl)phenyl)-5,7-dihydrofuro[3,4-d]pyridazin-1-yl)amino)piperidin-1-yl)ethan-1-one], for which the IC50 was 5 to 50 nM.

As for `O=C(CN1CCC[C@@H](Nc2nnc(-c3ccc(C(F)(F)F)cc3O)c3c2COC3)C1)N1CC[C@@H](O)C1` [Example 27, 2-((R)-3-((4-(2-hydroxy-4-(trifluoromethyl)phenyl)-5,7-dihydrofuro[3,4-d]pyridazin-1-yl)amino)piperidin-1-yl)-1-((R)-3-hydroxypyrrolidin-1-yl) ethan-1-one], the 50% inhibitory concentration (IC50) was in the range of 5 to 50 nM.

As to `Cc1cc(N[C@@H]2CCCN(CC(=O)N3CCC(O)CC3)C2)nnc1-c1ccc2sccc2c1O` [Example 49, 2-[(3R)-3-{[6-(4-hydroxy-1-benzothiophen-5-yl)-5-methylpyridazin-3-yl]amino}piperidin-1-yl]-1-(4-hydroxypiperidin-1-yl)ethanone], the IC50 was less than 5 nM.

On to `Cc1cc(N[C@@H]2CCCN(CC(=O)N3CCC(O)CC3)C2)nnc1-c1ccc(C(F)(F)F)cc1O` [Compound 9, 2-[(3R)-3-({6-[2-Hydroxy-4-(trifluoromethyl)phenyl]-5-methylpyridazin-3-yl}amino)piperidin-1-yl]-1-(4-hydroxypiperidin-1-yl)ethanone], for which the IC50 is 5 to 50 nM.

For `Cc1c(N[C@@H]2CCCN(CC3CC(O)C3)C2)nnc(-c2ccc3sccc3c2O)c1C` (stereo partly drawn) [Example 74, 5-(6-(((R)-1-(((1r,3R)-3-Hydroxycyclobutyl)methyl)piperidin-3-yl)amino)-4,5-dimethylpyridazin-3-yl)benzo[b]thiophen-4-ol], the IC50 was less than 5 nM.

For `Oc1cc(C(F)(F)F)ccc1-c1nnc(N[C@@H]2CCCN(CCN3CC[C@H](O)C3)C2)c2c1COC2` [Example 35, (S)-1-(2-((R)-3-((4-(2-Hydroxy-4-(trifluoromethyl)phenyl)-5,7-dihydrofuro[3,4-d]pyridazin-1-yl)amino)piperidin-1-yl)ethyl)pyrrolidin-3-ol], the IC50 lay within 5 to 50 nM.

On to `Cc1cc(N[C@@H]2CCCN(CC3CC(O)C3)C2)nnc1-c1ccc2sccc2c1O` (stereo partly drawn) [Example 52, 5-(6-(((R)-1-(((1r,3R)-3-Hydroxycyclobutyl)methyl)piperidin-3-yl)amino)-4-methylpyridazin-3-yl)benzo[b]thiophen-4-ol], for which the IC50 was less than 5 nM.

Consider `Cc1cc(N[C@@H]2CCCN(C3CCN(C4CCC(O)CC4)CC3)C2)nnc1-c1ccc(C(F)(F)F)cc1O` (single isomer, unassigned) [Example 39A], for which the IC50 lay in the range of 5 to 50 nM.

Take `Cc1cc(N[C@@H]2CCCN(C3CCN(C(=O)N4CCC(O)CC4)CC3)C2)nnc1-c1ccc(C(F)(F)F)cc1O` [Example 41, (R)-(3-((6-(2-Hydroxy-4-(trifluoromethyl)phenyl)-5-methylpyridazin-3-yl)amino)-[1,4′-bipiperidin]-1′-yl) (4-hydroxypiperidin-1-yl)methanone]: the IC50 fell in the range of 5 to 50 nM.

Consider `O=C(CN1CCC[C@@H](Nc2nnc(-c3ccc(C(F)(F)F)cc3O)c3c2COC3)C1)N1CCC(O)CC1` [Compound 23, (R)-2-(3-((4-(2-Hydroxy-4-(trifluoromethyl)phenyl)-5,7-dihydrofuro[3,4-d]pyridazin-1-yl)amino)piperidin-1-yl)-1-(4-hydroxypiperidin-1-yl)ethan-1-one], for which the IC50 was less than 5 nM.

The assay is the same for the next values; noted with them: Homo sapiens, U-937, read-out: IL-1β IC50, Table 4; PMA-differentiated U937 cells, 1 μg/mL LPS 3 h, compound 30 min, 10 mM nigericin 1 h.
Take `Cc1cc(N[C@@H]2CCCN([C@H]3C[C@H](N)C3)C2)nnc1-c1ccc(C(F)(F)F)cc1O` (relative stereo) [Example 90, 2-(6-(((R)-1-((1r*,3R*)-3-Aminocyclobutyl)piperidin-3-yl)amino)-4-methylpyridazin-3-yl)-5-(trifluoromethyl)phenol]: the IC50 was in the range of 5 to 50 nM.

On to `Cc1cc(N[C@@H]2CCCN(CCN3CCNCC3)C2)nnc1-c1ccc(C(F)(F)F)cc1O` [Example 104, (R)-2-(4-Methyl-6-((1-(2-(piperazin-1-yl)ethyl)piperidin-3-yl)amino)pyridazin-3-yl)-5-(trifluoromethyl)phenol], for which the IC50 was 5 to 50 nM.

Regarding `Cc1cc(N[C@@H]2CCCN(C3CCNCC3)C2)nnc1-c1ccc(C(F)(F)F)cc1O` [Example 85, (R)-2-(6-([1,4′-Bipiperidin]-3-ylamino)-4-methylpyridazin-3-yl)-5-(trifluoromethyl)phenol], the IC50 lay within 5 to 50 nM.

On to `Cc1cc(N[C@@H]2CCCN(C[C@H]3CCCN3)C2)nnc1-c1ccc(C(F)(F)F)cc1O` [Example 107, 2-(4-Methyl-6-(((R)-1-(((R)-pyrrolidin-2-yl)methyl)piperidin-3-yl)amino)pyridazin-3-yl)-5-(trifluoromethyl)phenol], for which the half-inhibitory concentration (IC50) was 5 to 50 nM.

With `Cc1cc(N[C@@H]2CCCN(C[C@@H]3CCCN3)C2)nnc1-c1ccc(C(F)(F)F)cc1O` [Example 106, 2-(4-Methyl-6-(((R)-1-(((S)-pyrrolidin-2-yl)methyl)piperidin-3-yl)amino)pyridazin-3-yl)-5-(trifluoromethyl)phenol], the IC50 lay in the range of 5 to 50 nM.

Take `Oc1cc(C(F)(F)F)ccc1-c1nnc(N[C@@H]2CCCN(C3CNC3)C2)c2c1COC2` [Example 99, (R)-2-(4-((1-(Azetidin-3-yl)piperidin-3-yl)amino)-5,7-dihydrofuro[3,4-d]pyridazin-1-yl)-5-(trifluoromethyl)phenol]: the IC50 was less than 5 nM.

For the molecule `Cc1cc(N[C@@H]2CCCN(CC(=O)NC3CCNCC3)C2)nnc1-c1ccc(C(F)(F)F)cc1O` [Example 95, (R)-2-(3-((6-(2-Hydroxy-4-(trifluoromethyl)phenyl)-5-methylpyridazin-3-yl)amino)piperidin-1-yl)-N-(piperidin-4-yl)acetamide], the IC50 lay in the range of 50 to 500 nM.
